Values of other authors as cited in patent US20150182553A1, “USE OF POLYMER D-LACTIC ACID (PDLA) TO TREAT MALARIA” (priority 2013, published 2015).

What was measured:
[1] = metabolite of PDLA
[2] = system: mitochondrial respiration of L-lactate; conditions: brain and heart

## C[C@@H](O)C(=O)O [D-lactic acid]
[1]
  average plasma concentration that may be related to reversible symptoms of altered mental status, dysarthria, and ataxia: 7.98 mM
[2]
  effect on mitochondrial respiration of L-lactate: block mitochondrial respiration of L-lactate in the brain and heart
